From patent US9067911B2, “Piperidine derivatives” (Hoffmann-La Roche Inc., priority 2009, dated 2015)
Where a name gives a salt, the structure may show the parent alone.

molecular target: T1, mGlyT-1b (Mus musculus, UniProt P28571); assay: Glycine uptake inhibition assay (mGlyT-1b); assay type: cell-based; conditions: [3H]-glycine uptake, Flp-in-CHO cells stably transfected with mGlyT1b cDNA, 20 min preincubation at 22° C.
T1 construct: host or cells: Flp-in-CHO
T1 sequence (P28571 1-651 isoform P28571-2): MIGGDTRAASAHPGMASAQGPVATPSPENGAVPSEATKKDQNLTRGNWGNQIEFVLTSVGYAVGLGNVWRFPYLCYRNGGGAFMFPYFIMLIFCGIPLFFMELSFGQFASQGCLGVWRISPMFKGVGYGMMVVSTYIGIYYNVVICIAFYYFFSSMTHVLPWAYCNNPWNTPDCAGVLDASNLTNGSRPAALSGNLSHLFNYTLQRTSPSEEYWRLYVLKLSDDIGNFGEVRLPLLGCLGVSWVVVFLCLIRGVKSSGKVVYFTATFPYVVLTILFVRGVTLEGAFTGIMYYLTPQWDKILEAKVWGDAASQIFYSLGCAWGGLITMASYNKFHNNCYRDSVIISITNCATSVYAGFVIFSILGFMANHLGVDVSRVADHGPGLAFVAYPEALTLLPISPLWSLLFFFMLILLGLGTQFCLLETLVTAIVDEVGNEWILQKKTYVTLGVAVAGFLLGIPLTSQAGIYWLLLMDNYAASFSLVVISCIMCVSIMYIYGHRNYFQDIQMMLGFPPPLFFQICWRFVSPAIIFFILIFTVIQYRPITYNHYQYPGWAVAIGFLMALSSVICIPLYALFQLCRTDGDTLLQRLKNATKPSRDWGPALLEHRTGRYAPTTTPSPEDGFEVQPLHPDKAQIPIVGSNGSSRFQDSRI
Method in brief: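 Flp-in CHO cells stably expressing mouse GlyT-1b were preincubated for 20 min at 22° C in pH 7.4 Hepes-Tris buffer with a range of inhibitor concentrations, with 10 mM unlabeled glycine defining nonspecific uptake. [^3H]-glycine (60 nM) plus 25 μM unlabeled glycine was then added. Cell-associated radioactivity after ice-cold washes gave IC50.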

In order of rising IC50:
1. CN1CCCC(NC(=O)c2ccc(C(F)(F)F)cc2C2CC2)(c2ccccc2)C1 (racemic) [Example 13, rac-2-Cyclopropyl-N-(1-methyl-3-phenyl-piperidin-3-yl)-4-trifluoromethyl-benzamide]  0.013 µM
2. COc1cc(C(F)(F)F)cc(SC)c1C(=O)N[C@@]1(c2ccccc2)CC[C@@H](C)N(C)C1 (single isomer, unassigned) [Example 119, N-((3R,6R) or (3S,6S)-1,6-Dimethyl-3-phenyl-piperidin-3-yl)-2-methoxy-6-methylsulfanyl-4-trifluoromethyl-benzamide]  0.0139 µM
3. CN1CC(C)(C)CC(NC(=O)c2ccc(C(F)(F)F)cc2C2CC2)(c2ccccc2)C1 (racemic) [Example 83, rac-2-Cyclopropyl-4-trifluoromethyl-N-(1,5,5-trimethyl-3-phenyl-piperidin-3-yl)-benzamide]  0.03 µM
4. CO[C@@H]1CN(C)C[C@](NC(=O)c2ccc(C(F)(F)F)cc2C2CC2)(c2ccccc2)C1 (racemic) [Example 126, 2-Cyclopropyl-N-((3R,5S) or (3S,5R)-5-methoxy-1-methyl-3-phenyl-piperidin-3-yl)-4-trifluoromethyl-benzamide]  0.0312 µM
5. COc1cc(C(F)(F)F)cc(SC)c1C(=O)NC1(c2cccc(Br)c2)CCCN(C)C1 (racemic) [Example 87, rac-N-[3-(3-Bromo-phenyl)-1-methyl-piperidin-3-yl]-2-methoxy-6-methylsulfanyl-4-trifluoromethyl-benzamide hydrochloride]  0.0396 µM
6. COc1cc(C(F)(F)F)cc(SC)c1C(=O)NC1(c2ccc(F)c(F)c2)CCCN(C)C1 (racemic) [Example 95, rac-N-[3-(3,4-Difluoro-phenyl)-1-methyl-piperidin-3-yl]-2-methoxy-6-methylsulfanyl-4-trifluoromethyl-benzamide]  0.0515 µM
7. COc1cc(C(F)(F)F)cc(SC)c1C(=O)NC1(c2cccnc2)CCCN(C)C1 (racemic) [Example 73, rac-2-Methoxy-6-methylsulfanyl-N-(1-methyl-1,4,5,6-tetrahydro-2H-[3,3′]bipyridinyl-3-yl)-4-trifluoromethyl-benzamide]  0.0544 µM
8. COCO[C@@H]1CN(C)C[C@](NC(=O)c2c(OC)cc(C(F)(F)F)cc2SC)(c2ccccc2)C1 (racemic) [Example 86, 2-Methoxy-N-((3RS,5SR)-5-methoxymethoxy-1-methyl-3-phenyl-piperidin-3-yl)-6-methylsulfanyl-4-trifluoromethyl-benzamide]  0.0715 µM
9. COc1cc(C(F)(F)F)cc(OC)c1C(=O)N[C@@]1(c2ccccc2)CCCN(C)C1 (racemic) [Example 128, 2,6-Dimethoxy-N-(R or (S)-1-methyl-3-phenyl-piperidin-3-yl)-4-trifluoromethyl-benzamide]  0.126 µM
10. COc1cc(C(F)(F)F)cc(SC)c1C(=O)N[C@]1(c2ccccc2)CCCN(C)C1 (stereo in doubt) [Example 37, 2-Methoxy-N-((S)-1-methyl-3-phenyl-piperidin-3-yl)-6-methylsulfanyl-4-trifluoromethyl-benzamide hydrochloride]  0.182 µM
